# Test results as given in patent EP2873670A1, “Bis azainositol zirconium complexes for X-ray imaging” (Bayer Pharma Aktiengesellschaft, priority 2013, dated 2015).
# Experiment: Stability of bis azainositol Zirconium complexes under heat sterilization (HPLC with ICP-MS detection, ICP-OES)
# Format: physicochemical
# Details: absolute stability; aqueous, buffered solution at pH 7.4, 5 mmol/L of the compound, heated to 121 °C for 45 minutes in a steam autoclave
# Protocol: Stability of bis azainositol Zirconium complexes
# The stability of bis azainositol Zirconium complexes was determined in aqueous, buffered solution at pH 7.4. The solution containing 5 mmol/L of the compound in a tightly sealed vessel was heated to 121 °C for 45 minutes in a steam autoclave. The Zirconium concentration of the solution was determined by ICP-OES before and after heat treatment. The integrity of the compound was determined by HPLC analysis before and after heat treatment. Absolute stability was calculated as the ratio of the peak area of the compound after and before the heat treatment multiplied with the ratio of the metal concentration of the solution after and before heat treatment.
# • Column 1: Reversed phase C18. • Column 2: ZIC®-HILIC. • Solvent A1: 0,5 mM tetrabutylammonium phosphate pH 6 • Solvent A2: 0.1 % formic acid in water • Solvent B1: methanol • Solvent B2: acetonitrile
# The use of columns, solvents, flow rate and gradients is detailed in the table below. Detector: element specific detection by ICP-MS, running at m/z 90, the most abundant isotope of Zirconium.
row,Stability [%],Substance
1,100,"Bis[µ3-3,3',3""-({[1R-(1α,2α,3α,4α,5α,6α)]-2,4,6-trihydroxylato-1κ^2O^2O^6, 2κ^2O^2O^4,3κ^2O^4O^6-cyclohexane-1,3,5-triyl}tris{methylimino-1κN^1,2κN^3,3κN^5})tripropanoato-1κO,2κO',3κO""]trizirconium(IV) [Example 3]"
2,100,"Hydroxido-3κO-[µ3-3,3',3""-({[1R-(1α,2α,3α,4α,5α,6α)]-2,4,6-trihydroxylato-1κ^2O^2O^6, 2κO^2O^4,3κ^2O^4O^6-cyclohexane-1,3,5-triyl]tris{methylimino-1κN^1,2κN^3,3κN^5}) tri-propanoato-1κO,2κO',3κO""][µ3-3,3'-({[1R-(1α,2α,3α,4α,5α,6α)]-2,4,6-trihydroxylato-1κ^2O^2O^6,2κ^2O^2O^4,3κ^2O^4O^6-5-[methylamino-3κN^5]cyclohexane-1,3-diyl}bis{methyl-imino-1κN^1,2κN^3})dipropanonato-1κO,2κO']trizirconium(IV) [Example 4]"
